Source: PubChem BioAssay AID330 (DTP/NCI, 2004)
Values joined by “and” are separate entries in the source; they are usually repeats but may differ in a detail not shown here. Identical values can stand only once. Inconclusive results and toxic doses are left out. The calls were made as follows: active = survival T/C of 150% or more; inactive = T/C below 125% in these data.

Tested on: P388 leukemia ip, CD2F1 mice, survival T/C
Test: NCI In Vivo Anticancer Drug Screen. Data for tumor model P388 Leukemia (intraperitoneal) in CD2F1 (CDF1) mice
Conditions: endpoint: median survival time, higher = longer survival
Procedure, shortened: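 Mice carrying the transplanted tumor received test compound or vehicle. Survival was recorded in each group, and the value is the treated-group measurement divided by that of the vehicle-treated control group.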

[1] = dose: 25.0 mg/kg/injection, schedule: Q01DX009 (ip), vehicle: Klucel (hydroxypropylcellulose) (HPC)
[2] = dose: 50.0 mg/kg/injection, schedule: Q01DX009 (ip), vehicle: Klucel (hydroxypropylcellulose) (HPC)
[3] = dose: 100.0 mg/kg/injection, schedule: Q01DX009 (ip), vehicle: Klucel (hydroxypropylcellulose) (HPC)
[4] = dose: 50.0 mg/kg/injection, schedule: Q01DX009 (ip), vehicle: saline with Tween-80
[5] = dose: 100.0 mg/kg/injection, schedule: Q01DX009 (ip), vehicle: saline with Tween-80
[6] = dose: 200.0 mg/kg/injection, schedule: Q01DX009 (ip), vehicle: saline with Tween-80
[7] = dose: 400.0 mg/kg/injection, schedule: Q01DX009 (ip), vehicle: saline with Tween-80
[8] = dose: 50.0 mg/kg/injection, schedule: Q01DX009 (ip), vehicle: saline
[9] = dose: 100.0 mg/kg/injection, schedule: Q01DX009 (ip), vehicle: saline
[10] = dose: 200.0 mg/kg/injection, schedule: Q01DX009 (ip), vehicle: saline
[11] = dose: 60.0 mg/kg/injection, schedule: Q01DX005 (ip), vehicle: saline with Tween-80
[12] = dose: 120.0 mg/kg/injection, schedule: Q01DX005 (ip), vehicle: saline with Tween-80
[13] = dose: 50.0 mg/kg/injection, schedule: Q01DX001 (ip), vehicle: Klucel (hydroxypropylcellulose) (HPC)
[14] = dose: 100.0 mg/kg/injection, schedule: Q01DX001 (ip), vehicle: Klucel (hydroxypropylcellulose) (HPC)
[15] = dose: 12.5 mg/kg/injection, schedule: Q01DX005 (ip), vehicle: saline
[16] = dose: 25.0 mg/kg/injection, schedule: Q01DX005 (ip), vehicle: saline

Measured: T/C

CCc1c(O)c(C(C)=O)c(S)[nH]c1=O
inactive: dose: 60.0 mg/kg/injection, schedule: Q01DX005 (ip), vehicle: Klucel (hydroxypropylcellulose) (HPC) 101 % of control and 88 % of control | dose: 120.0 mg/kg/injection, schedule: Q01DX005 (ip), vehicle: Klucel (hydroxypropylcellulose) (HPC) 102 % of control | dose: 240.0 mg/kg/injection, schedule: Q01DX005 (ip), vehicle: Klucel (hydroxypropylcellulose) (HPC) 114 % of control and 87 % of control

C(CCOCC1CO1)COCC1CO1 (configuration not stated)
inactive: [1] 108 % of control and 111 % of control | [2] 110 % of control | [3] 117 % of control

O=C(O)/C(Cl)=C(\Cl)C(=O)Nc1ccccc1C(F)(F)F
inactive: dose: 50.0 mg/kg/injection, schedule: Q01DX005 (ip), vehicle: saline with Tween-80 97 % of control | dose: 100.0 mg/kg/injection, schedule: Q01DX005 (ip), vehicle: saline with Tween-80 103 % of control

CNC(=O)c1ccccc1O
inactive: [4] 103 % of control | [5] 103 % of control | [6] 95 % of control | [7] 90 % of control

Nc1nnc2cc(Cl)ccc2n1
inactive: dose: 25.0 mg/kg/injection, schedule: Q01DX005 (ip), vehicle: Klucel (hydroxypropylcellulose) (HPC) 98 % of control | dose: 50.0 mg/kg/injection, schedule: Q01DX005 (ip), vehicle: Klucel (hydroxypropylcellulose) (HPC) 96 % of control | dose: 100.0 mg/kg/injection, schedule: Q01DX005 (ip), vehicle: Klucel (hydroxypropylcellulose) (HPC) 98 % of control | dose: 200.0 mg/kg/injection, schedule: Q01DX005 (ip), vehicle: Klucel (hydroxypropylcellulose) (HPC) 98 % of control

O=C1c2ccccc2C(Cl)=C(Cl)C1(Cl)Cl
inactive: dose: 12.5 mg/kg/injection, schedule: Q01DX009 (ip), vehicle: saline with Tween-80 104 % of control | dose: 25.0 mg/kg/injection, schedule: Q01DX009 (ip), vehicle: saline with Tween-80 90 % of control

CC(=O)C1=C(N)OCCC1
inactive: [8] 114 % of control | [9] 107 % of control | [10] 109 % of control

O=C(Nc1ccc(Cl)cc1)Nc1nnc2nc(CC(=O)c3ccc4ccccc4c3)c(=O)[nH]n12
inactive: [11] 97 % of control | [12] 99 % of control | dose: 240.0 mg/kg/injection, schedule: Q01DX005 (ip), vehicle: saline with Tween-80 97 % of control

O=C(O)/C(Cl)=C(\Cl)C(=O)Nc1c(Cl)cccc1Cl
inactive: [11] 101 % of control | [12] 100 % of control

CC(C)Cc1cccc2c1CCCC2
inactive: dose: 50.0 mg/kg/injection, schedule: Q01DX005 (ip), vehicle: suspension in saline 97 % of control | dose: 100.0 mg/kg/injection, schedule: Q01DX005 (ip), vehicle: suspension in saline 97 % of control | dose: 200.0 mg/kg/injection, schedule: Q01DX005 (ip), vehicle: suspension in saline 101 % of control

CCCCC[CH2][Ge]([CH2]CCCCC)([CH2]CCCCC)[O]C(C)=O
inactive: [13] 100 % of control and 107 % of control | [14] 101 % of control and 106 % of control | dose: 200.0 mg/kg/injection, schedule: Q01DX001 (ip), vehicle: Klucel (hydroxypropylcellulose) (HPC) 104 % of control and 115 % of control | dose: 400.0 mg/kg/injection, schedule: Q01DX001 (ip), vehicle: Klucel (hydroxypropylcellulose) (HPC) 120 % of control

Cc1ccc(OP(=O)(Oc2ccc(C)cc2)Oc2ccc(C)cc2)cc1.Cc1ccc(OP(=O)(Oc2ccc(C)cc2)Oc2ccc(C)cc2)cc1.[Cl][Mn][Cl]
inactive: dose: 100.0 mg/kg/injection, schedule: Q04DX003 (ip), vehicle: Klucel (hydroxypropylcellulose) (HPC) 110 % of control | dose: 200.0 mg/kg/injection, schedule: Q04DX003 (ip), vehicle: Klucel (hydroxypropylcellulose) (HPC) 115 % of control | dose: 400.0 mg/kg/injection, schedule: Q04DX003 (ip), vehicle: Klucel (hydroxypropylcellulose) (HPC) 114 % of control

CNC(=O)Nc1[nH]c(=O)ncc1Cl
inactive: [11] 112 % of control | [12] 113 % of control

C=C1C(=O)O[C@@H]2/C=C(/C)C3=CC(=O)[C@@](C)(C[C@@H](OC(=O)C(C)CC)C12)O3 (some centres not stated)
inactive: dose: 10.0 mg/kg/injection, schedule: Q01DX005 (ip), vehicle: Klucel (hydroxypropylcellulose) (HPC) 100 % of control | dose: 20.0 mg/kg/injection, schedule: Q01DX005 (ip), vehicle: Klucel (hydroxypropylcellulose) (HPC) 102 % of control | dose: 40.0 mg/kg/injection, schedule: Q01DX005 (ip), vehicle: Klucel (hydroxypropylcellulose) (HPC) 114 % of control | dose: 80.0 mg/kg/injection, schedule: Q01DX005 (ip), vehicle: Klucel (hydroxypropylcellulose) (HPC) 108 % of control

CCCCN1C(=O)c2ccc(N)cc2C1=O
inactive: [2] 100 % of control | [3] 97 % of control | dose: 200.0 mg/kg/injection, schedule: Q01DX009 (ip), vehicle: Klucel (hydroxypropylcellulose) (HPC) 110 % of control

O=C(c1ccccc1)C(c1ccccc1)n1nc2c(c1-c1ccccc1)CCC2 (configuration not stated)
inactive: dose: 12.5 mg/kg/injection, schedule: Q01DX001 (ip), vehicle: Klucel (hydroxypropylcellulose) (HPC) 100 % of control | dose: 25.0 mg/kg/injection, schedule: Q01DX001 (ip), vehicle: Klucel (hydroxypropylcellulose) (HPC) 95 % of control | [13] 98 % of control | [14] 100 % of control

NC(=O)Nc1ccccc1O
inactive: [5] 98 % of control | [6] 117 % of control | [7] 107 % of control

COc1cc([C@@H]2c3cc4c(c(O)c3C[C@H]3COC(=O)[C@@H]32)OCO4)cc(OC)c1OC
inactive: dose: 0.12 mg/kg/injection, schedule: Q01DX009 (ip), vehicle: saline 113 % of control | dose: 0.12 mg/kg/injection, schedule: Q01DX009 (ip), vehicle: suspension in saline 111 % of control | dose: 0.25 mg/kg/injection, schedule: Q01DX009 (ip), vehicle: saline 119 % of control | dose: 0.25 mg/kg/injection, schedule: Q01DX009 (ip), vehicle: suspension in saline 119 % of control | dose: 0.5 mg/kg/injection, schedule: Q01DX009 (ip), vehicle: saline 124 % of control

C=C(C)[C@@H]1CC=C(C)[C@H](O)C1
inactive: [8] 111 % of control | [9] 102 % of control | [10] 100 % of control

COc1cc(NC(C)CCCNC(C)C)c2ncccc2c1OC (configuration not stated)
inactive: dose: 6.25 mg/kg/injection, schedule: Q01DX005 (ip), vehicle: saline 103 % of control | [15] 93 % of control | [16] 93 % of control

CC(O)CN(CCN(CC(C)O)CC(C)O)CC(C)O (configuration not stated)
inactive: dose: 50.0 mg/kg/injection, schedule: Q01DX005 (ip), vehicle: saline 105 % of control | dose: 100.0 mg/kg/injection, schedule: Q01DX005 (ip), vehicle: saline 103 % of control | dose: 200.0 mg/kg/injection, schedule: Q01DX005 (ip), vehicle: saline 103 % of control

NC(=O)c1nnn2c1nc(N)c1ccccc12
inactive: [4] 90 % of control | [5] 89 % of control | [6] 91 % of control

C#CCOC(=O)Nc1nc2ccc(C)cc2s1
inactive: dose: 6.25 mg/kg/injection, schedule: Q01DX009 (ip), vehicle: Klucel (hydroxypropylcellulose) (HPC) 107 % of control | dose: 12.5 mg/kg/injection, schedule: Q01DX009 (ip), vehicle: Klucel (hydroxypropylcellulose) (HPC) 104 % of control | [1] 101 % of control

CCC(CC)NCCCNc1cc(OC)cc2cccnc12
inactive: [15] 108 % of control | [16] 104 % of control

CC(=O)Sc1ccccc1C(=O)NCc1ccc(Cl)cc1
inactive: [4] 117 % of control | [5] 104 % of control | [6] 120 % of control

C=C(C)C12CC(C)C34OC5(CCCCCCCC(C)C6C(C)C(OC(=O)c7ccccc7)C(O)(C(O)C7(CO)OC7C3C1O5)C64)O2 (configuration not stated)
inactive: dose: 3.0 micrograms/kg/injection, schedule: Q01DX009 (ip), vehicle: saline + alcohol 107 % of control | dose: 5.0 micrograms/kg/injection, schedule: Q01DX009 (ip), vehicle: saline + alcohol 109 % of control | dose: 10.0 micrograms/kg/injection, schedule: Q01DX009 (ip), vehicle: saline + alcohol 118 % of control

C/C(=N\N=Nc1ccc(N(C)C)cc1)c1ccccc1
inactive: dose: 60.0 mg/kg/injection, schedule: Q01DX005 (ip), vehicle: Klucel + Tween-80 100 % of control | dose: 120.0 mg/kg/injection, schedule: Q01DX005 (ip), vehicle: Klucel + Tween-80 99 % of control
